Measurements as given in the supplement of paper PMC13380429.

What was measured:
U2OS [1] = assay: cell viability relative to DMSO; higher = less toxic; conditions: 72 h
Vero E6 [2] = assay: as above; conditions: 72 h
Calu-3 [3] = assay: as above; conditions: 72 h
HepG2 [4] = assay: as above; conditions: 72 h
Caco-2 [5] = assay: as above; conditions: 72 h
U2OS [6] = assay: drug sensitivity score (DSS) for viability; higher = more toxic; extreme values may be limits of the assay; conditions: 72 h
Vero E6 [7] = assay: as above; conditions: 72 h
Calu-3 [8] = assay: as above; conditions: 72 h
HepG2 [9] = assay: as above; conditions: 72 h
Caco-2 [10] = assay: as above; conditions: 72 h
U2OS [11] = assay: relative viability EC50 (midpoint between 100% and the lowest measured viability); higher = less toxic; conditions: 72 h
Vero E6 [12] = assay: as above; conditions: 72 h
Calu-3 [13] = assay: as above; conditions: 72 h
HepG2 [14] = assay: as above; conditions: 72 h
Caco-2 [15] = assay: as above; conditions: 72 h
[16] = test system: A549-ACE2 infected with SARS-CoV-2; assay: SARS-CoV-2 infection rate relative to DMSO; higher = more infection; conditions: 24 h
A549-ACE2 = assay: drug-induced phospholipidosis relative to tamoxifen; higher = more phospholipidosis
[17] = test system: A549-ACE2 infected with SARS-CoV-2; assay: cell count relative to DMSO; higher = less toxic; conditions: 24 h
[18] = test system: A549-ACE2 infected with SARS-CoV-2; assay: morphology score (similarity to uninfected cells); higher = more like uninfected cells; conditions: 24 h

CO[C@@]1(NC(=O)C(C(=O)O)c2ccc(O)cc2)C(=O)N2C(C(=O)O)=C(CSc3nnnn3C)CO[C@@H]21 (stereo partly drawn) [moxalactam]
cell viability [%]
Conditions	Caco-2 [5]	Calu-3 [3]	HepG2 [4]	U2OS [1]	Vero E6 [2]
1 nM	92.6	93.2	102	94.8	98.1
10 nM	99.7	100	95.2	98.2	97.5
100 nM	96.7	92.1	117	96.1	98.1
1000 nM	95.9	105	84.9	103	92.7
10000 nM	105	98	117	104	100

Conditions	drug sensitivity score	relative viability EC50 [µM]
Caco-2 [10]	0	–
Caco-2 [15]	–	> 10
Calu-3 [8]	0	–
Calu-3 [13]	–	> 10
HepG2 [9]	0	–
HepG2 [14]	–	> 10
U2OS [6]	0	–
U2OS [11]	–	> 10
Vero E6 [7]	0	–
Vero E6 [12]	–	> 10

CC(C)c1c2cc(-c3ccnc(N[C@H]4CC[C@H](NC5CCOCC5)CC4)n3)ccc2nn1C
cell viability [%]
Conditions	Caco-2 [5]	Calu-3 [3]	HepG2 [4]	U2OS [1]	Vero E6 [2]
1 nM	94.6	105	98.9	99	93.8
10 nM	96.6	107	101	95	96.7
100 nM	94.8	108	83.2	99.8	88
1000 nM	53.6	60.3	10.1	42.8	86
10000 nM	31.3	43.3	9.8	4.6	4.7

Conditions	drug sensitivity score	relative viability EC50 [µM]
Caco-2 [10]	9.6	–
Caco-2 [15]	–	0.589
Calu-3 [8]	7.7	–
Calu-3 [13]	–	0.719
HepG2 [9]	19.1	–
HepG2 [14]	–	0.18
U2OS [6]	12	–
U2OS [11]	–	0.851
Vero E6 [7]	7.6	–
Vero E6 [12]	–	2

COc1cc2ncnc(Nc3cccc(Cl)c3)c2cc1OC [tyrphostin-AG-1478]
Conditions	SARS-CoV-2 infection rate, [16] [%]	cell count, [17] [%]	cell viability, Caco-2 [5] [%]	cell viability, Calu-3 [3] [%]	cell viability, HepG2 [4] [%]	cell viability, U2OS [1] [%]	cell viability, Vero E6 [2] [%]	morphology score, [18]
1 nM	–	–	102	107	99.7	103	98.6	–
10 nM	–	–	88.6	103	85.3	96.1	100	–
100 nM	–	–	97.4	93.6	101	96.2	84.9	–
0.3 µM	101	97	–	–	–	–	–	-0.07
1000 nM	–	–	80.5	45.1	100	92.7	64.3	–
3 µM	91	102	–	–	–	–	–	0.32
10000 nM	–	–	72.4	31.3	67.3	87.7	48.2	–
10 µM	57	106	–	–	–	–	–	0.52
30 µM	19	69	–	–	–	–	–	0.35

drug-induced phospholipidosis [%], A549-ACE2
Conditions	0.3 µM	0.833333 µM	3.33333 µM	6.66667 µM	10 µM	30 µM
24 h	3.78	0.06	-0.97	3.23	3.9	3.18
48 h	3.39	-0.45	-0.89	-0.86	1.84	-2.59
72 h	0.893	-2.52	-3.56	-0.746	0.696	-0.954

Conditions	drug sensitivity score	relative viability EC50 [µM]
Caco-2 [10]	3.1	–
Calu-3 [8]	11.1	–
Calu-3 [13]	–	0.422
HepG2 [9]	1.5	–
U2OS [6]	0.1	–
U2OS [11]	–	> 10
Vero E6 [7]	8.2	–
Vero E6 [12]	–	0.335

CC(=O)N(CC(C)C(=O)O)c1c(I)cc(I)c(N)c1I (stereo not drawn) [iocetamic-acid]
cell viability [%]
Conditions	Caco-2 [5]	Calu-3 [3]	HepG2 [4]	U2OS [1]	Vero E6 [2]
1 nM	101	97.3	93	98.2	107
10 nM	99.3	98.6	102	103	103
100 nM	90.6	91.5	99.8	104	97.3
1000 nM	95.5	90.3	102	102	105
10000 nM	99.9	95.4	96.1	101	101

Conditions	drug sensitivity score	relative viability EC50 [µM]
Caco-2 [10]	0	–
Caco-2 [15]	–	> 10
Calu-3 [8]	0	–
Calu-3 [13]	–	> 10
HepG2 [9]	0	–
HepG2 [14]	–	> 10
U2OS [6]	0	–
U2OS [11]	–	> 10
Vero E6 [7]	0	–
Vero E6 [12]	–	> 10

CCC(C)(Oc1ccc(C2(c3ccc(OC(C)(CC)C(=O)O)cc3)CCCCC2)cc1)C(=O)O (stereo not drawn) [clinofibrate]
cell viability [%]
Conditions	Caco-2 [5]	Calu-3 [3]	HepG2 [4]	U2OS [1]	Vero E6 [2]
1 nM	103	96.1	93.9	96.9	96.4
10 nM	98.2	93.7	106	98.3	101
100 nM	99	99.9	92.6	102	96
1000 nM	105	102	120	95.6	99.2
10000 nM	104	98.9	108	94.9	107

Conditions	drug sensitivity score	relative viability EC50 [µM]
Caco-2 [10]	0	–
Caco-2 [15]	–	> 10
Calu-3 [8]	0	–
Calu-3 [13]	–	> 10
HepG2 [9]	0	–
HepG2 [14]	–	> 10
U2OS [6]	0	–
U2OS [11]	–	> 10
Vero E6 [7]	0	–
Vero E6 [12]	–	> 10

CC[C@@H]1/C=C(\C)C[C@H](C)C[C@H](OC)[C@H]2O[C@@](O)(C(=O)C(=O)N3CCCC[C@H]3C(=O)O[C@H](/C(C)=C/[C@@H]3CC[C@@H](O)[C@H](OC)C3)[C@H](C)[C@@H](O)CC1=O)[C@H](C)C[C@@H]2OC [ascomycin]
cell viability [%]
Conditions	Caco-2 [5]	Calu-3 [3]	HepG2 [4]	U2OS [1]	Vero E6 [2]
1 nM	117	98.3	124	96	107
10 nM	97.8	98.9	109	104	100
100 nM	95	90.8	112	97.8	98.1
1000 nM	100	107	96	98.4	93.5
10000 nM	84.5	107	104	95.2	102

Conditions	drug sensitivity score	relative viability EC50 [µM]
Caco-2 [10]	0.2	–
Caco-2 [15]	–	> 10
Calu-3 [8]	0	–
Calu-3 [13]	–	> 10
HepG2 [9]	0	–
HepG2 [14]	–	> 10
U2OS [6]	0	–
U2OS [11]	–	> 10
Vero E6 [7]	0	–
Vero E6 [12]	–	> 10
